In patent US9017681B2, “Adenylyl cyclases as novel targets for antibactrial interventions” (Cornell Research Foundation, Inc., priority 2007, dated 2015):

These molecules were tested on endogenous transmembrane adenylyl cyclases (assay: cellular cAMP accumulation assay in 293T cells + IBMX + forskolin). Conditions: 293T cells + FSK.
Type: cell-based, human
Description: (§1) 293T cells or 4-4 cells (hsACt stably transfected into 293T) were grown in 75 cm2 Tissue Culture Flasks until nearly confluent using DMEM (10% FBS, 1% L-Glutamine, 1% Penicillin/Streptomycin). Cells were released from the flask with 3 ml of trypsin followed by addition of 7 ml of DMEM to neutralize the trypsin. Cells were mixed by pipetting up and down with 10 ml serological pipette. To a 3 ml aliquot of the cell mixture, 6 ml of DMEM (prewarmed to 37° C.) was added followed by thorough mixing by picking up the entire 9 mls using a repeat pipettor, and slowly pipetting out against the wall of container. This was repeated this ten times to ensure the mixture in homogenous. 100 μL of cells were then added to each pre-siliconized 1.7 ml Eppindorf tubes (Costar #3207) followed by a 60 min incubation at 37° C. and 5% CO2. This incubation was performed in 20-tube, round, floating racks (VWR #60986-100), which enable a quick transfer of the samples to a water bath, and the ability to mix several samples simultaneously. Following the incubation, 1 μL of the compound in DMSO was added (or just DMSO for controls). The cells were mixed before and after adding the compound, by a brief (and light) vortexing. The compounds were added while the cells were in the 37° C. water bath, followed by a 10 min incubation at 37° C. and 5% CO2. Following this incubation, 1 μL it of IBMX or 1 μL of IBMX+Forskolin was added with Repeat Pipettor. The 4-4 cells receive the IBMX to a final concentration of 500 μM IBMX. The 293T cells receive IBMX and Forskolin to final concentration of 500 μM IBMX and 10 μM, respectively. Both the IBMX mix (for 4-4 cells), and the IBMX/FSK mix (for 293T cells) were 100×, and were dissolved in DMSO. Cells were mixed and incubated at 37° C. and 5% CO2 for 15 min. The assay was stopped by placing the cells in an ice bath. Cells were pelleted by centrifugation at 2000×G for 7 min at 4° C. The supernatant was aspirated and 250 μL of 0.1 N HCl was added to each cell pellet followed by through vortexing for 1 min. Following a 10 min incubation at room temperature, 30 μL of each sample was added to 70 μL of 0.1 N HCl and the cAMP levels were measured using the protocol for the Direct Cyclic AMP Kit (Assay Designs, Inc. #901-066). This 30 μL plus 70 μL of 0.1 N HCl makes up the sample described in step 5 of the Assay Designs' protocol. The samples should lie in the linear range of the assay.

Row | SMILES | cellular toxicity remark, 293T + FSK
1 | C/C(=N\NC(=O)CSc1nc2ccccc2[nH]1)c1ccccc1 [KH7.108] | may be cellular toxicity

Same assay, conditions: 293T cells; 500 μM IBMX and 10 μM forskolin; endogenous tmAC activity; read-out: 293T + FSK

Row | SMILES | IC50 [µM]
2 | C/C(=N\NC(=O)CSc1nc2ccccc2[nH]1)c1ccco1 [KH7.109] | > 120
3 | CC(Sc1nc2ccccc2[nH]1)C(=O)N/N=C/c1ccc([N+](=O)[O-])cc1 (centres unmarked) [KH7.101] | > 120
4 | C/C(=N/NC(=O)CSc1nc2ccccc2[nH]1)c1ccncc1 [KH7.117] | > 500
5 | C/C(=N\NC(=O)CSc1nc2ccccc2[nH]1)c1ccc(Br)cc1 [KH7.107] | > 120
6 | O=C(CSc1nc2ccccc2[nH]1)N/N=C/c1cccc(Br)c1 [KH7.104] | 60 to 120

Other lines, results leading:

Row | IC50 [µM] | SMILES
7 | 60 to 120 | C/C(=N\NC(=O)CSc1nc2ccccc2[nH]1)c1ccccc1 [KH7.108]
8 | 120 | CCCOc1ccc(/C=N/NC(=O)CSc2nc3ccccc3[nH]2)cc1 [KH7.111]

These molecules were tested against T1, human sAC (Homo sapiens, UniProt Q96PN6) (assay: cellular cAMP accumulation assay in 4-4 cells (hsACt stably transfected into 293T), IBMX). Conditions: 4-4 cells.
T1 construct: made in house
T1 sequence (Q96PN6 1-469 limits assumed): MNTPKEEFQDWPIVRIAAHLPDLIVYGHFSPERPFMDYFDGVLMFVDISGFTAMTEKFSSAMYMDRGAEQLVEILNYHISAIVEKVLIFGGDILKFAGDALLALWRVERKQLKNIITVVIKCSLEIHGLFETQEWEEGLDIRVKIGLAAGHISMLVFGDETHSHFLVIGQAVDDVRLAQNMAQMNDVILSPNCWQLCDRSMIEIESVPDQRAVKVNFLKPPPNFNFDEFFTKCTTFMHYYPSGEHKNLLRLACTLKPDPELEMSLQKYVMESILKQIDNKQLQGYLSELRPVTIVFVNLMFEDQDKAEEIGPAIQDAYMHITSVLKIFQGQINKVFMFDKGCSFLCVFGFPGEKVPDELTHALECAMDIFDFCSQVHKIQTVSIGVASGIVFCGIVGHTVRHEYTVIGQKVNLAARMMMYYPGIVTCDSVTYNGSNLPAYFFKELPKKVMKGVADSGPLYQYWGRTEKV
Type: cell-based
Description: as §1, with “cells (hsACt” left out, “The 293T cells receive IBMX and Forskolin to final concentration of 500 μM IBMX and 10 μM, respectively.” left out

Row | SMILES | cellular toxicity remark, 4-4 Basal
9 | C/C(=N\NC(=O)CSc1nc2ccccc2[nH]1)c1ccccc1 [KH7.108] | may be cellular toxicity

Same assay, conditions: stable cell line overexpressing human sAC; 500 μM IBMX; read-out: 4-4, Basal approximate IC50 (or the dose range where the IC50 should lie)

Row | SMILES | IC50 [µM]
10 | C/C(=N\NC(=O)CSc1nc2ccccc2[nH]1)c1ccco1 [KH7.109] | ~120
11 | CC(Sc1nc2ccccc2[nH]1)C(=O)N/N=C/c1ccc([N+](=O)[O-])cc1 (centres unmarked) [KH7.101] | 30
12 | C/C(=N/NC(=O)CSc1nc2ccccc2[nH]1)c1ccncc1 [KH7.117] | 167 to 500
13 | C/C(=N\NC(=O)CSc1nc2ccccc2[nH]1)c1ccc(Br)cc1 [KH7.107] | 60 to 120
14 | O=C(CSc1nc2ccccc2[nH]1)N/N=C/c1cccc(Br)c1 [KH7.104] | 15

Results, then the molecule that gave them:

Row | IC50 [µM] | SMILES
15 | 30 to 60 | C/C(=N\NC(=O)CSc1nc2ccccc2[nH]1)c1ccccc1 [KH7.108]
16 | 3 to 30 | CCCOc1ccc(/C=N/NC(=O)CSc2nc3ccccc3[nH]2)cc1 [KH7.111]

Each molecule was assayed against T1, human sAC (assay: in vitro adenylyl cyclase assay with purified human sAC protein (cAMP by Correlate-EIA)). Conditions: 100 μM of compound; BASAL human sAC in vitro activity; read-out: % Inhibition (100 μM), hsACt-Basal.
Type: biochemical
Description: Purified human sAC protein was used in an in vitro adenylyl cyclase assay. Purification of the protein is described in detail in Litvin et al. 2003. (J. Biol. Chem. 278:15922-15926). This paper also describes the general conditions for a sAC cyclase assay. The specific conditions for the in vitro assay are as follows.
For basal sAC activity, an assay master mixture with sufficient volume for all reactions was prepared containing:
100 U/ml creatine phosphokinase (CPK)
An aliquot of the master mixture was added to the purified human sAC. The assay mixture also included the indicated concentration of KH compound, or an equivalent volume of vehicle (i.e., DMSO) as control. The reaction was started by adding 5 mM ATP (total assay volume=100 μL). The reaction mixture was incubated at 30° C. for 30 minutes and then stopped by adding 100 μl […]. Stimulated assay conditions involve adding 40 mM bicarbonate and 5 mM CaCl2 to the above master mixture.
Cyclic AMP levels were measured in each sample using the Correlate-EIA Direct Cyclic AMP assay kit from Assay Designs as per manufacturers instructions.

Row | SMILES | inhibition at 100 µM [%]
17 | C/C(=N\NC(=O)CSc1nc2ccccc2[nH]1)c1ccco1 [KH7.109] | 0
18 | CC(Sc1nc2ccccc2[nH]1)C(=O)N/N=C/c1ccc([N+](=O)[O-])cc1 (centres unmarked) [KH7.101] | 50
19 | C/C(=N/NC(=O)CSc1nc2ccccc2[nH]1)c1ccncc1 [KH7.117] | 0
20 | C/C(=N\NC(=O)CSc1nc2ccccc2[nH]1)c1ccc(Br)cc1 [KH7.107] | 95
21 | O=C(CSc1nc2ccccc2[nH]1)N/N=C/c1cccc(Br)c1 [KH7.104] | 70

Second part, the molecule after the results:

Row | inhibition at 100 µM [%] | SMILES
22 | 0 | C/C(=N\NC(=O)CSc1nc2ccccc2[nH]1)c1ccccc1 [KH7.108]
23 | 70 | CCCOc1ccc(/C=N/NC(=O)CSc2nc3ccccc3[nH]2)cc1 [KH7.111]

Same assay, conditions: 100 μM of compound; stimulated human sAC in vitro activity; read-out: % Inhibition (100 μM), hsACt-Stim.

Row | SMILES | inhibition at 100 µM [%]
24 | C/C(=N\NC(=O)CSc1nc2ccccc2[nH]1)c1ccco1 [KH7.109] | 0
25 | CC(Sc1nc2ccccc2[nH]1)C(=O)N/N=C/c1ccc([N+](=O)[O-])cc1 (centres unmarked) [KH7.101] | 50
26 | C/C(=N/NC(=O)CSc1nc2ccccc2[nH]1)c1ccncc1 [KH7.117] | 0
27 | C/C(=N\NC(=O)CSc1nc2ccccc2[nH]1)c1ccc(Br)cc1 [KH7.107] | 95
28 | O=C(CSc1nc2ccccc2[nH]1)N/N=C/c1cccc(Br)c1 [KH7.104] | 85

The next lines start with the values.

Row | inhibition at 100 µM [%] | SMILES
29 | 0 | C/C(=N\NC(=O)CSc1nc2ccccc2[nH]1)c1ccccc1 [KH7.108]
30 | 70 | CCCOc1ccc(/C=N/NC(=O)CSc2nc3ccccc3[nH]2)cc1 [KH7.111]

Same assay, conditions: BASAL activity of human sAC in vitro (just Mg-ATP, no calcium or bicarbonate); read-out: hsACt-Basal approximate IC50 (or the dose range where the IC50 should lie)

Row | SMILES | IC50 [µM]
31 | C/C(=N\NC(=O)CSc1nc2ccccc2[nH]1)c1ccco1 [KH7.109] | > 100
32 | CC(Sc1nc2ccccc2[nH]1)C(=O)N/N=C/c1ccc([N+](=O)[O-])cc1 (centres unmarked) [KH7.101] | 10 to 100
33 | C/C(=N/NC(=O)CSc1nc2ccccc2[nH]1)c1ccncc1 [KH7.117] | > 100
34 | C/C(=N\NC(=O)CSc1nc2ccccc2[nH]1)c1ccc(Br)cc1 [KH7.107] | 10 to 100
35 | O=C(CSc1nc2ccccc2[nH]1)N/N=C/c1cccc(Br)c1 [KH7.104] | 10 to 100

Other lines, results leading:

Row | IC50 [µM] | SMILES
36 | > 100 | C/C(=N\NC(=O)CSc1nc2ccccc2[nH]1)c1ccccc1 [KH7.108]
37 | 10 to 100 | CCCOc1ccc(/C=N/NC(=O)CSc2nc3ccccc3[nH]2)cc1 [KH7.111]

Same assay, conditions: stimulated activity of human sAC in vitro (calcium and bicarbonate stimulated); read-out: hsACt-Stim. approximate IC50 (or the dose range where the IC50 should lie)

Row | SMILES | IC50 [µM]
38 | C/C(=N\NC(=O)CSc1nc2ccccc2[nH]1)c1ccco1 [KH7.109] | > 100
39 | CC(Sc1nc2ccccc2[nH]1)C(=O)N/N=C/c1ccc([N+](=O)[O-])cc1 (centres unmarked) [KH7.101] | 10 to 100
40 | C/C(=N/NC(=O)CSc1nc2ccccc2[nH]1)c1ccncc1 [KH7.117] | > 100
41 | C/C(=N\NC(=O)CSc1nc2ccccc2[nH]1)c1ccc(Br)cc1 [KH7.107] | 10 to 100
42 | O=C(CSc1nc2ccccc2[nH]1)N/N=C/c1cccc(Br)c1 [KH7.104] | 10 to 100

Other lines, results leading:

Row | IC50 [µM] | SMILES
43 | > 100 | C/C(=N\NC(=O)CSc1nc2ccccc2[nH]1)c1ccccc1 [KH7.108]
44 | 10 to 100 | CCCOc1ccc(/C=N/NC(=O)CSc2nc3ccccc3[nH]2)cc1 [KH7.111]
